Entries after “also recorded” stand apart in the source; their conditions may differ.
Assays:
Assay type in all cases: cell-based
[1] = test system: A549/ATCC; experiment: NCI DTP human tumor cell line screen (SRB); conditions: Non-Small Cell Lung Cancer, 10 μM, 48 h
In short: (§1)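 Percentage growth is calculated from three absorbances (time zero, untreated control, treated) in an SRB assay. Tumor cells receive 10 μM compound for 48 h at 37 °C; values below zero indicate net cell loss relative to Tz.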

[2] = test system: IGROV1; experiment: NCI DTP human tumor cell line screen (SRB); conditions: Ovarian Cancer, 10 μM, 48 h
In short: as §1

[3] = test system: DU-145; experiment: NCI DTP human tumor cell line screen (SRB); conditions: Prostate Cancer, 10 μM, 48 h
In short: as §1

[4] = test system: RXF 393; experiment: NCI DTP human tumor cell line screen (SRB); conditions: Renal Cancer, 10 μM, 48 h
In short: as §1

[5] = test system: DAOY medulloblastoma cells; experiment: DAOY medulloblastoma cells, MTT assay and light microscopy
Method: The compound ART-Phe-Sal was tested on DAOY medulloblastoma cells using the MTT assay. DAOY Medulloblastoma cells (5,000 cells/200 μL) was seeded on a 96 well plate and incubated for 24 h at 37° C. Cell culture medium was removed after 24 h and 150 μL of medium with treatment was added. Each experimental treatment had holo-Tf (20 μg/well). Treatment assay was viewed under light microscope after 24 h.
Treatment medium was removed after 48 h, and 100 μL of cell medium was added. MTT Reagent (10 μL, 12 mM) was added to each well. This solution was incubated at 37° C. for 4 h. Isopropanol (100 μL) was added to each well to lyse the cells, which were then incubated at 4° C. for 30 m. After incubation each well was plunged (3×200 μL) to ensure the cells were lysed. The incubated medium with MTT reagent was then centrifuged at 13,000 RPM in an eppendorph centrifuge for 3 minutes at room temperature. 100 μL of supernatant was read in a plate reader at λ=570 nm. FIG. 13 compares the effect of dihydroartemisinin (DHA) and ART-Phe-Sal on DAOY medulloblastoma cell line. The concentration of holo-Tf was 1.7 μM.

[6] = test system: Molt-4 human leukemia cells; experiment: Cell count of Molt-4 human leukemia cells over time; conditions: FIG. 11; [ART-Phe-Sal]=10 mM, [DHA]=10 μM, [ART-Tf]=12 μM; cells counted at different times
Method: Molt-4-lymphoblastoid cells were purchased from the American Type Culture Collection (Rockville, Md.). They are acute lympoblastic leukemia cells from human peripheral blood. Cultures were maintained in RPMI-1640 (Gibco, Long Island, N.Y.) supplemented with 10% fetal bovine serum (Hyclone, New Haven, Conn.). Cells were cultured at 37° C. in 5% CO2/95% air and 100% humidity, and were split 1:2 at a concentration of approximately 1×10^6/mL. Approximate cell numbers before experiment were between 150×10^3 to 300×10^3 per mL.
FIG. 11 compares the effects of ART-Phe-Sal, DHA, and artemisinin-tagged holotransferrin (ART-Tf) on Molt-4 human leukemia cell.

| SMILES | Growth Percent [1] [%] | Growth Percent [2] [%] | Growth Percent [3] [%] | Growth Percent [4] [%] | activity against DAOY medulloblastoma cells ([5]; FIG. 13, MTT assay, 48 h treatment, holo-Tf 1.7 μM) | cell shrinkage under light microscope ([5]; after 24 h treatment, each treatment had holo-Tf (20 μg/well)) | effect on Molt-4 human leukemia cells (cell count, words) [6] |
| --- | --- | --- | --- | --- | --- | --- | --- |
| Cc1ncc(CO)c(C=NNC(=O)c2ccc(COC3OC4OC5(C)CCC6C(C)CCC(C3C)C46OO5)cc2)c1O (stereo not shown) [ART-Phe-Pyridoxal, N′-(5-hydroxy-3-hydroxymethyl-2-methyl-4-pyridylidene)-4-(dihydroxyartemisinin-methyl)-phenyl carbohydrazide] | 26.36 | 1.58 | −9.65 | 35.07 |  |  |  |
| CC1CCC2C(C)C(OCc3ccc(C(=O)NN=Cc4ccccc4O)cc3)OC3OC4(C)CCC1C32OO4 (stereo not shown) [ART-Phe-Sal, N′-(2-hydroxybenzylidene)-4-(dihydroxyartemisinin-methyl)-phenyl carbohydrazide] |  |  |  |  | active against DAOY medulloblastoma cells | Moderate cell shrinkage | can effectively kill human leukemia cells; also recorded: more potent than either dihydroartemisinin (DHA) or artemisinin-tagged holotransferrin (ART-Tf) |

Source: patent publication US7692030B2, “Conjugates of artemisinin-related endoperoxides and hydrazone derivatives for the treatment of cancer” (University of Washington, priority 2006, dated 2010)
